Results as given in patent publication US9884130B2, “Compositions for delivery of oral comfort sensations” (The Procter & Gamble Company, priority 2013, dated 2018).
Where a name gives a salt, the structure may show the parent alone. Read-outs that look alike come from different tables or passages of the source.

Legend:
[1] = molecular target: T1, mouse TREK-1 (mTREK-1t) (Mus musculus, UniProt P97438); assay: FLIPR membrane potential assay in HEK-293 cells stably transfected with mTREK-1t; type: cell-based
T1 construct: (mTREK-1t) by Capital Biosciences (Rockville, Md.)
T1 sequence (P97438 with tags, fused parts or gaps limits assumed): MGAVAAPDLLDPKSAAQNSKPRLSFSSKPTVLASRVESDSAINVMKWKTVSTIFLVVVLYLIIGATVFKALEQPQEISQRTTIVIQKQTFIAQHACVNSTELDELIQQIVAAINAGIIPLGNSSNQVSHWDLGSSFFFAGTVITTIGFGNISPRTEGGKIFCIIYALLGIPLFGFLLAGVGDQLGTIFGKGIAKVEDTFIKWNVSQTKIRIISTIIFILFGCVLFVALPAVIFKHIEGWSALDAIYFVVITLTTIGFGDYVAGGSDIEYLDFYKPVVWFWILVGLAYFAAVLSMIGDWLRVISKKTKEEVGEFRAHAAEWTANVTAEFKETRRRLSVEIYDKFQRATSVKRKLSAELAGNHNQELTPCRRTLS

[2] = concentration level where the cooling effect can be clearly recognized; cited from earlier work
[3] = HEK293, sample concentration 50 μM, relative to 50 mM potassium nitrate, read-out: Fluorescence per Sample concentration (percent activity relative to potassium nitrate)
[4] = HEK293, sample concentration 100 μM, relative to 50 mM potassium nitrate, read-out: Fluorescence per Sample concentration (percent activity relative to potassium nitrate)
[5] = HEK293, sample concentration 200 μM, relative to 50 mM potassium nitrate, read-out: Fluorescence per Sample concentration (percent activity relative to potassium nitrate)
[6] = HEK293, read-out: Fluorescence per Sample concentration (percent activity relative to potassium nitrate)
[7] = HEK293, read-out: Activity Level (percentage of activity relative to 100% with 50 mM potassium nitrate)
[8] = HEK293, Sample Conc. 0.0005%, read-out: Activity Level (percentage of activity relative to 100% with 50 mM potassium nitrate)
[9] = HEK293, Sample Conc. 0.0010%, read-out: Activity Level (percentage of activity relative to 100% with 50 mM potassium nitrate)
[10] = HEK293, Sample Conc. 0.0021%, read-out: Activity Level (percentage of activity relative to 100% with 50 mM potassium nitrate)
[11] = HEK293, Sample Conc. 0.0042%, read-out: Activity Level (percentage of activity relative to 100% with 50 mM potassium nitrate)
[12] = HEK293, Sample Conc. 0.0083%, read-out: Activity Level (percentage of activity relative to 100% with 50 mM potassium nitrate)
[13] = HEK293, Sample Conc. 0.0167%, read-out: Activity Level (percentage of activity relative to 100% with 50 mM potassium nitrate)
[14] = HEK293, Sample Conc. 0.0330%, read-out: Activity Level (percentage of activity relative to 100% with 50 mM potassium nitrate)
[15] = sample concentration 50 μM, relative to 50 mM potassium nitrate
[16] = sample concentration 100 μM, relative to 50 mM potassium nitrate
[17] = sample concentration 200 μM, relative to 50 mM potassium nitrate

Compound: COC(=O)c1ccccc1O [Methyl Salicylate]
- percentage of TREK-1 activity relative to potassium nitrate ([1]; Sample Concentration 0.0005%): 2.35%
- percentage of TREK-1 activity relative to potassium nitrate ([1]; Sample Concentration 0.0010%): 2.33%
- percentage of TREK-1 activity relative to potassium nitrate ([1]; Sample Concentration 0.0021%): 2.66%
- percentage of TREK-1 activity relative to potassium nitrate ([1]; Sample Concentration 0.0042%): 4.94%
- percentage of TREK-1 activity relative to potassium nitrate ([1]; Sample Concentration 0.0083%): 8.31%
- percentage of TREK-1 activity relative to potassium nitrate ([1]; Sample Concentration 0.0167%): 17.4%
- percentage of TREK-1 activity relative to potassium nitrate ([1]; Sample Concentration […]): 29.43%

Compound: Cc1ccc(C(C)C)c(O)c1 [Thymol]
- percentage of TREK-1 activity relative to potassium nitrate ([1]; Sample Concentration 0.0005%): 4.57%
- percentage of TREK-1 activity relative to potassium nitrate ([1]; Sample Concentration 0.0010%): 4.82%
- percentage of TREK-1 activity relative to potassium nitrate ([1]; Sample Concentration 0.0021%): 3.86%
- percentage of TREK-1 activity relative to potassium nitrate ([1]; Sample Concentration 0.0042%): 4.09%
- percentage of TREK-1 activity relative to potassium nitrate ([1]; Sample Concentration 0.0083%): 6.73%
- percentage of TREK-1 activity relative to potassium nitrate ([1]; Sample Concentration 0.0167%): 31.4%
- percentage of TREK-1 activity relative to potassium nitrate ([1]; Sample Concentration […]): 65.22%

Compound: CCCCC(CC)CCC(=O)O (centres unmarked) [4-Ethyloctanoic Acid]
- activation at 50 µM [1, 3]: 31%
- activation at 100 µM [1, 4]: 44.6%
- activation at 200 µM [1, 5]: 77.3%

Compound: CCCCC(CC)COP(=O)(O)OCC(CC)CCCC (centres unmarked) [Bis (2-ethyl hexyl) Phosphate]
- activity on TREK-1 compared with potassium nitrate ([1]; 0.033% Sample concentration vs 50 mM (0.505%) potassium nitrate): higher activity on TREK-1 than potassium nitrate
- Activity Level (percentage of activity relative to 100% with 50 mM potassium nitrate) ([1]; Sample Conc. 0.0005%): 5.92%
- Activity Level (percentage of activity relative to 100% with 50 mM potassium nitrate) ([1]; Sample Conc. 0.0010%): 13.39%
- Activity Level (percentage of activity relative to 100% with 50 mM potassium nitrate) ([1]; Sample Conc. 0.0021%): 20.49%
- Activity Level (percentage of activity relative to 100% with 50 mM potassium nitrate) ([1]; Sample Conc. 0.0042%): 26.65%
- Activity Level (percentage of activity relative to 100% with 50 mM potassium nitrate) ([1]; Sample Conc. 0.0083%): 43.09%
- Activity Level (percentage of activity relative to 100% with 50 mM potassium nitrate) ([1]; Sample Conc. 0.0167%): 84.83%
- Activity Level (percentage of activity relative to 100% with 50 mM potassium nitrate) ([1]; Sample Conc. 0.0330%): 109.75%

Compound: CC(C)[C@@H]1CC[C@@H](C)C[C@H]1O [L- Menthol]
- cooling threshold [2]: about 800 ppb

Compound: CC=Cc1ccc(OC)c(OC)c1 [1,2-Dimethoxy 4-propenyl benzene]
- activation at 50 µM [1, 6]: 5.19%
- activation at 100 µM [1, 6]: 10.5%
- activation at 200 µM [1, 6]: 29.1%

Compound: CCCCCC(C)CCC(=O)O (centres unmarked) [4-Methylnonanoic acid]
- activation at 50 µM [1, 3]: 24.8%
- activation at 100 µM [1, 4]: 38.5%
- activation at 200 µM [1, 5]: 79.9%

Compound: CCCCCCCCOC(=O)CCCCC(=O)OCCCCCCCC [Dioctyl Adipate]
- activity on TREK-1 compared with potassium nitrate [1]: higher activity on TREK-1 than potassium nitrate
- activation at 0.0005 % [1, 7]: 8.93%
- activation at 0.001 % [1, 7]: 13.7%
- activation at 0.0021 % [1, 7]: 18.1%
- activation at 0.0042 % [1, 7]: 22.9%
- activation at 0.0083 % [1, 7]: 38.9%
- activation at 0.0167 % [1, 7]: > 70%
- activation at 0.033 % [1, 7]: 132%

Compound: CCCOC(=O)CCCCC(=O)OCCC [Dipropyl Adipate]
- activation at 0.0005 % [1, 8]: 0%
- activation at 0.001 % [1, 9]: 0%
- activation at 0.0021 % [1, 10]: 0%
- activation at 0.0042 % [1, 11]: 0%
- activation at 0.0083 % [1, 12]: 0.51%
- activation at 0.0167 % [1, 13]: 2.66%
- activation at 0.033 % [1, 14]: 12.2%

Compound: CC(C)[C@@H]1CC[C@@H](C)C[C@@H]1O [Sample 1-neomenthol, 1-neomenthol]
- cooling threshold [2]: about 3,000 ppb

Compound: CCCCCCCCCCC1CCC(=O)O1 (centres unmarked) [gamma-Tetradecalactone]
- Fluorescence per Sample concentration (percent activity relative to potassium nitrate) [1, 15]: 3.21%
- Fluorescence per Sample concentration (percent activity relative to potassium nitrate) [1, 16]: 3.54%
- Fluorescence per Sample concentration (percent activity relative to potassium nitrate) [1, 17]: 9.82%
- Fluorescence per Sample concentration (percent activity relative to potassium nitrate) ([1]; sample concentration 400 μM, relative to 50 mM potassium nitrate): 15.89%

Compound: Oc1ccccc1-c1ccccc1 [2-Phenylphenol]
- activation at 50 µM [1, 6]: 0.35%
- activation at 100 µM [1, 6]: 0.85%
- activation at 200 µM [1, 6]: 12.9%
- activation at 400 µM [1, 6]: ≥ 50%

Compound: CCOC(=O)CC(O)(CC(=O)OCC)C(=O)OCC [Triethyl Citrate]
- activation at 0.0005 % [1, 8]: 4.06%
- activation at 0.001 % [1, 9]: 1.7%
- activation at 0.0021 % [1, 10]: 2.98%
- activation at 0.0042 % [1, 11]: 3.67%
- activation at 0.0083 % [1, 12]: 6.17%
- activation at 0.0167 % [1, 13]: 13.4%
- activation at 0.033 % [1, 14]: 17.2%

Compound: CC(C)C=C(C=O)c1ccccc1 [4-Methyl-2-phenyl-2 Pentenal]
- activation at 50 µM [1, 3]: 16.5%
- activation at 100 µM [1, 4]: 27.1%
- activation at 200 µM [1, 5]: 52.1%

Compound: CC(C)CC=C(C=O)C(C)C [2-Isopropyl-5-methyl-2-hexenal]
- activation at 50 µM [1, 3]: 11.1%
- activation at 100 µM [1, 4]: 21.1%
- activation at 200 µM [1, 5]: 46.3%
- activation at 400 µM ([1]; HEK293, sample concentration 400 μM, relative to 50 mM potassium nitrate, read-out: Fluorescence per Sample concentration (percent activity relative to potassium nitrate)): ≥ 50%

Compound: CCCCCCCCC1CCC(=O)O1 (centres unmarked) [gamma-Dodecalactone]
- Fluorescence per Sample concentration (percent activity relative to potassium nitrate) [1, 15]: 1.77%
- Fluorescence per Sample concentration (percent activity relative to potassium nitrate) [1, 16]: 3.41%
- Fluorescence per Sample concentration (percent activity relative to potassium nitrate) [1, 17]: 18.74%

Compound: CC(C)[C@@H]1CC[C@@H](C)C[C@@H]1O [d-neomenthol]
- cooling threshold [2]: about 25,000 ppb

Compound: L-Carvone
- percentage of TREK-1 activity relative to potassium nitrate ([1]; Sample Concentration 0.0005%): 1.85%
- percentage of TREK-1 activity relative to potassium nitrate ([1]; Sample Concentration 0.0010%): 0.97%
- percentage of TREK-1 activity relative to potassium nitrate ([1]; Sample Concentration 0.0021%): 2.7%
- percentage of TREK-1 activity relative to potassium nitrate ([1]; Sample Concentration 0.0042%): 2.03%
- percentage of TREK-1 activity relative to potassium nitrate ([1]; Sample Concentration 0.0083%): 9.51%
- percentage of TREK-1 activity relative to potassium nitrate ([1]; Sample Concentration 0.0167%): 24.1%
- percentage of TREK-1 activity relative to potassium nitrate ([1]; Sample Concentration […]): 98.65%

Compound: CC(C)OC(=O)CCCCC(=O)OC(C)C [Diisopropyl Adipate]
- activation at 0.0005 % [1, 8]: 1.31%
- activation at 0.001 % [1, 9]: 1.38%
- activation at 0.0021 % [1, 10]: 3.43%
- activation at 0.0042 % [1, 11]: 3.56%
- activation at 0.0083 % [1, 12]: 6.59%
- activation at 0.0167 % [1, 13]: 14.8%
- activation at 0.033 % [1, 14]: 30.4%

Compound: O=[N+]([O-])[O-].[K+] [Potassium Nitrate, reference compound]
- Activity Level (percentage of activity relative to 100% with 50 mM potassium nitrate) [1]: 100%
- Fluorescence per Sample concentration (percent activity relative to potassium nitrate) [1]: 100%
- percentage of TREK-1 activity relative to potassium nitrate [1]: 100%

Compound: CCCCOC(=O)CC(CC(=O)OCCCC)(OC(C)=O)C(=O)OCCCC [Acetyl Tributyl Citrate]
- activation at 0.0005 % [1, 8]: 2.69%
- activation at 0.001 % [1, 9]: 0.48%
- activation at 0.0021 % [1, 10]: 3.06%
- activation at 0.0042 % [1, 11]: 2.5%
- activation at 0.0083 % [1, 12]: 5.89%
- activation at 0.0167 % [1, 13]: 14.1%
- activation at 0.033 % [1, 14]: 24%
